# Measured values as given in US20070270475A1, “4-Methoxy-Pyrrolidine-2-Carboxylic Acid Compounds and Derivatives Thereof as Hepatitis C Virus Inhibitors” (priority 2004, published 2007).
# Target: T1, HCV RNA Polymerase, recombinant full-length NS5B, genotype 1b (Hepatitis C virus genotype 1b, UniProt Q9WMX2)
# T1 construct: Recombinant full-length NS5B; made in house; host or cells: baculovirus (insect cells)
# Experiment: In vitro HCV RNA-dependent RNA polymerase inhibition assay, genotype 1b full-length enzyme
# Format: biochemical, HCV genotype 1b
# Settings: genotype 1b full-length NS5B, 4 nM enzyme
# Method: In Vitro Detection of inhibitors of HCV RNA-Dependent RNA Polymerase Activity
# Incorporation of [^33P]-GMP into RNA was followed by absorption of the biotin labelled RNA polymer by streptavidin containing SPA beads. A synthetic template consisting of biotinylated 13mer-oligoG hybridised to polyrC was used as a homopolymer substrate.
# b) Genotype 1b Full-Length Enzyme
# Reaction Conditions were 0.5 μM [^33P]-GTP (20 Ci/mMol), 1 mM Dithiothreitol, 20 mM MgCl2, 5 mM MnCl2, 20 mM Tris-HCl, pH7.5, 1.6 μg/mL polyC/0.256 μM biotinylated oligoG13, 10% glycerol, 0.01% NP-40, 0.2 u/μL RNasin and 50 mM NaCl.
# HCV RNA Polymerase (Recombinant full-length NS5B (Lohmann et al, J. Virol. 71 (11), 1997, 8416. ‘Biochemical properties of hepatitis C virus NS5B RNA-dependent RNA polymerase and identification of amino acid sequence motifs essential for enzymatic activity’) expressed in baculovirus and purified to homogeneity) was added to 4 nM final concentration.
# 5× concentrated assay buffer mix was prepared using 1M MnCl2 (0.25 mL), glycerol (2.5 mL), 10% NP-40 (0.025 mL) and Water (7.225 mL), Total 10 mL.
# 2× concentrated enzyme buffer contained 1M-Tris-HCl, pH7.5 (0.4 mL), 5M NaCl (0.2 mL), 1M-MgCl2(0.4 mL), glycerol (1 mL), 10% NP-40 (10 μL), 1M DTT (20 μL) and water (7.97 mL), Total 10 mL.
# Substrate Mix was prepared using 5x Concentrated assay Buffer mix (4 μL), [^33P]-GTP (10 μCi/μL, 0.02 μL), 25 μM GTP (0.4 μL), 40 μ/μL RNasin (0.1 μL), 20 μg/mL polyrC/biotinylated-oligorG (1.6 μL), and Water (3.94 μL), Total 10 μL.
# Enzyme Mix was prepared by adding 1 mg/ml full-length NS5B polymerase (1.5 μL) to 2.81 mL 2×-concentrated enzyme buffer.
# The Assay was set up using compound (1μL), Substrate Mix (10 μL), and Enzyme Mix (added last to start reaction) (10 μL), Total 21 μL.
# The reaction was performed in a U-bottomed, white, 96-well plate. The reaction was mixed on a plate-shaker, after addition of the Enzyme, and incubated for 1 h at 22° C. After this time, the reaction was stopped by addition of 40 μL 1.875 mg/ml streptavidin SPA beads in 0.1 M EDTA. The beads were incubated with the reaction mixture for 1 h at 22° C. after which 120 μL 0.1 M EDTA in PBS was added. The plate was sealed, mixed centrifuged and incorporated radioactivity determined by counting in a Trilux (Wallac) or Topcount (Packard) Scintillation Counter.
# After subtraction of background levels without enzyme, any reduction in the amount of radioactivity incorporated in the presence of a compound, compared to that in the absence, was taken as a measure of the level of inhibition. Ten concentrations of compounds were tested in three- or fivefold dilutions. From the counts, percentage of inhibition at highest concentration tested or IC50s for the compounds were calculated using GraFit 3, GraFit 4 or GraFit 5 (Erithacus Software Ltd.) software packages or a data evaluation macro for Excel based on XLFit software (IDBS).
# T1 sequence (Q9WMX2 2420-3010): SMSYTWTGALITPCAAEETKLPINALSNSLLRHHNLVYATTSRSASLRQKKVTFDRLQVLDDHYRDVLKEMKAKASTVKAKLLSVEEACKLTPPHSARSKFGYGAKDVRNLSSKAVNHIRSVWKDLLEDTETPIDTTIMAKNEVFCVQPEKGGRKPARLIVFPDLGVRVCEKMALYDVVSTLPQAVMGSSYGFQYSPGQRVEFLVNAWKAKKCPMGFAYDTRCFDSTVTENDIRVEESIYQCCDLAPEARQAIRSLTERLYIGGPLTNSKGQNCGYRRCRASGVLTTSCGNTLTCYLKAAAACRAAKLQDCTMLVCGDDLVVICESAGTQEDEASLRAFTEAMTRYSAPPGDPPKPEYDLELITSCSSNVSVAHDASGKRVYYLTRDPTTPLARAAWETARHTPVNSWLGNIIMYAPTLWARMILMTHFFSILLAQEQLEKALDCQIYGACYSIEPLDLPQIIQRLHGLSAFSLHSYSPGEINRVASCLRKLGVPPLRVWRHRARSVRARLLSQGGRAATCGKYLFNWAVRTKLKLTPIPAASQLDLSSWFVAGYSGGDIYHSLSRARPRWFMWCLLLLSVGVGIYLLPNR
row,Compound,IC50 [nM]
1,"COC[C@H]1C[C@@](CC(C)C)(C(=O)O)N(C(=O)c2ccc(C(C)(C)C)c(OC)c2)[C@H]1c1nccs1 (racemic) [Compound A, rel-(2S,4S,5R)-2-isobutyl-1-(3-methoxy-4-tert-butylbenzoyl)-4-methoxymethyl-5-(1,3-thiazol-2-yl)pyrrolidine-2-carboxylic acid, reference compound]",> 500
2,"COC[C@H]1C[C@@](CC(C)C)(C(=O)O)N(C(=O)c2ccc(C(C)(C)C)c(OC)c2)[C@H]1c1ncc(C)s1 (racemic) [Compound C, rel-(2S,4S,5R)-2-isobutyl-1-(3-methoxy-4-tert-butylbenzoyl)-4-methoxymethyl-5-(5-methyl-1,3-thiazol-2-yl)pyrrolidine-2-carboxylic acid, reference compound]",> 500
3,"COC[C@H]1C[C@@](Cc2ccccc2)(C(=O)O)N(C(=O)c2ccc(C(C)(C)C)c(OC)c2)[C@H]1c1nccs1 (racemic) [Compound E, rel-(2R,4S,5R)-2-benzyl-1-(3-methoxy-4-tert-butylbenzoyl)-4-methoxymethyl-5-(1,3-thiazol-2-yl)-pyrrolidine-2-carboxylic acid, reference compound]",200 to 500
4,"COC[C@H]1C[C@@](Cc2cscn2)(C(=O)O)N(C(=O)c2ccc(C(C)(C)C)c(OC)c2)[C@H]1c1ncc(C)s1 (racemic) [Example 1, rel-(2R,4S,5R)-1-(3-Methoxy-4-tert-butylbenzoyl)-4-(methoxymethyl)-5-(5-methyl-1,3-thiazol-2-yl)-2-(1,3-thiazol-4-ylmethyl)pyrrolidine-2-carboxylic acid]",< 200
5,"COC[C@H]1C[C@@](Cc2cscn2)(C(=O)O)N(C(=O)c2ccc(C(C)(C)C)c(OC)c2)[C@H]1c1nccs1 (racemic) [Example 3, rel-(2R,4S,5R)-1-(3-Methoxy-4-tert-butylbenzoyl)-4-(methoxymethyl)-5-(1,3-thiazol-2-yl)-2-(1,3-thiazol-4-ylmethyl)pyrrolidine-2-carboxylic acid]",< 200
6,"COC[C@H]1C[C@@](Cc2ccsn2)(C(=O)O)N(C(=O)c2ccc(C(C)(C)C)c(OC)c2)[C@H]1c1nccs1 (racemic) [Example 4, rel-(2R,4S,5R)-1-(3-Methoxy-4-tert-butylbenzoyl)-4-(methoxymethyl)-5-(1,3-thiazol-2-yl)-2-(1,2-thiazol-3-ylmethyl)pyrrolidine-2-carboxylic acid]",< 200
7,"COC[C@H]1C[C@@](Cn2cccn2)(C(=O)O)N(C(=O)c2ccc(C(C)(C)C)c(OC)c2)[C@H]1c1nccs1 (racemic) [Example 6, rel-(2R,4S,5R)-1-(3-Methoxy-4-tert-butylbenzoyl)-4-(methoxymethyl)-2-(1H-pyrazol-1-ylmethyl)-5-(1,3-thiazol-2-yl)pyrrolidine-2-carboxylic acid]",< 200
8,"COC[C@H]1C[C@@](Cc2nccs2)(C(=O)O)N(C(=O)c2ccc(C(C)(C)C)c(OC)c2)[C@H]1c1ncc(C)s1 (racemic) [Example 8, rel-(2R,4S,5R)-1-(3-Methoxy-4-tert-butylbenzoyl)-4-(methoxymethyl)-5-(5-methyl-1,3-thiazol-2-yl)-2-(1,3-thiazol-2-ylmethyl)pyrrolidine-2-carboxylic acid]",< 200
9,"COC[C@H]1C[C@@](Cc2ccsn2)(C(=O)O)N(C(=O)c2ccc(C(C)(C)C)c(OC)c2)[C@H]1c1ncc(C)s1 (racemic) [Example 9, rel-(2R,4S,5R)-1-(3-Methoxy-4-tert-butylbenzoyl)-4-(methoxymethyl)-5-(5-methyl-1,3-thiazol-2-yl)-2-(1,2-thiazol-3-ylmethyl)pyrrolidine-2-carboxylic acid]",< 200
10,"COC[C@H]1C[C@@](Cn2cccn2)(C(=O)O)N(C(=O)c2ccc(C(C)(C)C)c(OC)c2)[C@H]1c1ncc(C)s1 (racemic) [Example 10, rel-(2R,4S,5R)-1-(3-Methoxy-4-tert-butylbenzoyl)-4-(methoxymethyl)-5-(5-methyl-1,3-thiazol-2-yl)-2-(1H-pyrazol-1-ylmethyl)pyrrolidine-2-carboxylic acid]",< 200
11,"COC[C@H]1C[C@@](Cn2cccn2)(C(=O)O)N(C(=O)c2ccc(C(C)(C)C)c(OC)c2)[C@H]1c1nccs1 (single isomer, unassigned) [Example 7]",< 200
12,"COCC1CC(CC(C)C)(C(=O)O)N(C(=O)c2ccc(C(C)(C)C)c(OC)c2)C1c1ncc(C)s1 (single isomer, unassigned; enantiomer a) [Compound D, reference compound]",200 to 500
13,"COC[C@H]1C[C@@](Cc2cscn2)(C(=O)O)N(C(=O)c2ccc(C(C)(C)C)c(OC)c2)[C@H]1c1ncc(C)s1 (single isomer, unassigned; enantiomer a) [Example 2]",< 200
14,"COC[C@H]1C[C@@](Cc2ccsn2)(C(=O)O)N(C(=O)c2ccc(C(C)(C)C)c(OC)c2)[C@H]1c1nccs1 (single isomer, unassigned; enantiomer a) [Example 5]",< 200
15,"COC[C@H]1C[C@@](Cn2cccn2)(C(=O)O)N(C(=O)c2ccc(C(C)(C)C)c(OC)c2)[C@H]1c1ncc(C)s1 (single isomer, unassigned; enantiomer a) [Example 11]",< 200
16,"COC[C@H]1C[C@@](Cc2cscn2)(C(=O)O)N(C(=O)c2ccc(C(C)(C)C)c(OC)c2)[C@H]1c1nccs1 (single isomer, unassigned; enantiomer a) [Example 12]",< 200
17,"COC[C@H]1C[C@@](CC(C)C)(C(=O)O)N(C(=O)c2ccc(C(C)(C)C)c(OC)c2)[C@H]1c1nccs1 [Compound B, (2S,4S,5R)-2-isobutyl-1-(3-methoxy-4-tert-butylbenzoyl)-4-methoxymethyl-5-(1,3-thiazol-2-yl)pyrrolidine-2-carboxylic acid, reference compound]",200 to 500
